Experimental data reported in patent US20160089391A1, “Molecular Targets for Cardiovascular Disease” (Temple University-of the Commonwealth System of Higher …, priority 2014, published 2016).
Residues, ends and D or L forms follow the SMILES beside them.

Key:
mouse thoracic aorta = test: Endothelium-dependent vascular relaxation to ACh in aortic rings treated ex vivo (multiple-wire myograph); conditions: for aortic endothelium-dependent vascular relaxation to ACh: aortic rings of HHcy/HG-Cbs−/+ mice preincubated with calpain inhibitor 20 μmol/L for 1 hour; for aortic endothelium-dependent vascular relaxation to ACh / endothelium-dependent vascular relaxation to ACh: p<0.05; for endothelium-dependent vascular relaxation to ACh: aortic rings of HHcy/HG-Cbs−/+ mice preincubated 1 hr with antioxidant (PEG-SOD 150 U/mL, Tempol 1 mmol/L, apocynin 10 μmol/L)
calpain [1] = conditions: mouse microvascular endothelial cells (Smolock et al., 2011); cited from earlier work
aorta of db/db mice = conditions: supplementation, via the NO pathway (Seto et al., 2010); cited from earlier work
eNOS-pThr495 = eNOS-pThr495 protein levels in HAECs; format: cell-based, human; conditions: HAECs with DL-Hcy 500 μmol/L and D-Glu 25 mmol/L 48 hrs; GFX 2 μmol/L 30 min; MDL 20 mmol/L 48 hrs; Adv-dnPKCβ2 200 MOI 72 hrs; siRNA 72 hrs
Method: (FIG. 7A). eNOS protein levels in mouse aorta of Cbs^−/+ mice (Left Panel) and HAECs (Right Panel). (FIG. 7B). eNOS-pThr497/495 protein levels in mouse aorta of Cbs^−/+ mice (Left Panel) and in HAECs (Right Panel). At the age of 8-week, Cbs^−/+ mice were fed with a high methionine diet (HM, methionine: 2% w/w) for 8 weeks, and/or injected with streptozotocin (STZ, i.p., 40 mg/kg) for 5 consecutive days starting from the first day of experiment. Mice fed with a control diet (CT, methionine: 0.37% w/w) and injected with vehicle (50 mmol/L citrate buffer) served as controls. Human aortic endothelial cells (HAECs, passage 8-9) were cultured in EC medium which contains 5 mmol/L D-glucose (D-Glu), treated with DL-homocysteine (DL-Hcy, 500 μmol/L) and/or D-Glu (25 mmol/L). (FIG. 7C). eNOS-pThr495 protein levels in HAECs. HAECs (passage 8-9) were cultured in EC medium which contains 5 mmol/L D-glucose (D-Glu), treated with DL-homocysteine (DL-Hcy, 500 μmol/L) and D-Glu (25 mmol/L for 48 hrs with or without non-specific PKC inhibitor GF109203X (GFX) (2 μmol/L, 30 min.); control adenoviruse (Ad-CT, 200 MOI, 72 hrs), dominant negative PKCβ2 adenovirus (Adv-dnPKCβ2, 200 MOI, 72 hrs); μ-calpain siRNA (μ-calpsiRNA, Santa Cruz #sc-29885, 72 hrs), or MDL ([…], 48 hrs, Sigma #M6690). (FIG. 7D). Transfection effect of Adv-dnPKCβ2in HAECs. Cultured HAECs (passage 8, 80% confluence) were treated with 12.5, 25, 50, 100 and 200 MOI Adv-dnPKCβ2 for 48 hrs. n=3, *p<0.05 vs control; †p<0.05 vs DL-Hcy-treated HAECs; ‡p<0.05 vs D-Glu-treated HAECs; #p<0.05 vs DL-Hcy/D-Glu-treated HAECs. Cbs, cystathionine β-synthase; eNOS, endothelial nitric oxide synthase; eNOS-pThr495/497, phosphorylation of eNOS at threonine 497 (mouse)/495 (human).
Human aortic endothelial cells (HAECs) were cultured in cell culture medium (M199, HyClone) as previously described (Wang et al., 1997, J Biol Chem 272:25380-25385). The HAECs were treated with DL-Hcy (200 or 500 μmol/L) and/or D-glucose (D-Glu, 25 mmol/L) for 24 or 48 hrs in the presence or absence of selected pharmacological inhibitors or siRNA or adenovirus.

eNOS = molecular target: T1, eNOS (Homo sapiens, UniProt P29474); test: eNOS activity in intact HAECs (3H-Arg to 3H-citrulline conversion); format: cell-based; conditions: HAECs; L-NAME 100 μmol/L added in the last hour
T1 construct: endogenous in cells; host or cells: HAECs (human aortic endothelial cells)
T1 sequence (P29474 2-1203 limits assumed): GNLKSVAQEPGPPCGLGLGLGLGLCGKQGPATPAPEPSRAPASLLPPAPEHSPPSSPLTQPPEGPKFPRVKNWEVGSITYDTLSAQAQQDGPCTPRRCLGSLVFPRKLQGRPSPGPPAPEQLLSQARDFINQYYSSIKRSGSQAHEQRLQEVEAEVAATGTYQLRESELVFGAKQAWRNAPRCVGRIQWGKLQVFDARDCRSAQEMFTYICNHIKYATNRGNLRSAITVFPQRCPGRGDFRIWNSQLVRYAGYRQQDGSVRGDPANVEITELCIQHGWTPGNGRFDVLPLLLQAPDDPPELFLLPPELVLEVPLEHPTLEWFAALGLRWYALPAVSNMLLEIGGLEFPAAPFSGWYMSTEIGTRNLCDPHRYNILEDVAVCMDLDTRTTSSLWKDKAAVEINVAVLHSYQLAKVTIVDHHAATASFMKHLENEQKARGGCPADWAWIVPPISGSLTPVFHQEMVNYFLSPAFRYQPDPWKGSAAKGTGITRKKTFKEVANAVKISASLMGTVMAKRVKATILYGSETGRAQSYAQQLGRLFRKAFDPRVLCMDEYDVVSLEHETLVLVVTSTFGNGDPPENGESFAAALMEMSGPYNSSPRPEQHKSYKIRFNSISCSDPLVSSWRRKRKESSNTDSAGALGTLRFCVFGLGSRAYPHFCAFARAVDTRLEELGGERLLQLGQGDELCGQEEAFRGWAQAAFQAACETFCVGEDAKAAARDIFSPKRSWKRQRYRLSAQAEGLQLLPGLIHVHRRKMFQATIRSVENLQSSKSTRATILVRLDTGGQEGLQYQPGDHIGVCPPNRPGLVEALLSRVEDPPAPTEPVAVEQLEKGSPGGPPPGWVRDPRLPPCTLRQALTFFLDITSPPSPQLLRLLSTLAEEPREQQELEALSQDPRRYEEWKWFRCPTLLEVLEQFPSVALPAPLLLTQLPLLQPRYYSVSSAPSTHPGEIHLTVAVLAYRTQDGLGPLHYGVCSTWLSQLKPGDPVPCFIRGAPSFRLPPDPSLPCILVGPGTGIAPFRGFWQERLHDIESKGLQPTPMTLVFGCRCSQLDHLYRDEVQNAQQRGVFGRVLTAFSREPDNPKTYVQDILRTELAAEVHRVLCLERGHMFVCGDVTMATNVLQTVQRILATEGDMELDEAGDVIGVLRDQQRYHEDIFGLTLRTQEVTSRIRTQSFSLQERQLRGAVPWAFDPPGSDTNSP
Method: (§1) (FIG. 6A). Images of NO. Nitric oxide (NO) production in HAECs was measured by staining intact HAECs with NO marker DAF-FM. N^G-nitro-L-arginine methyl ester (L-NAME, 100 μmol/L, Sigma #N5751) was added in the last hour as a negative control. (FIG. 6B). Quantification of NO. (FIG. 6C). eNOS activity. Human aortic endothelial cells (HAECs) were cultured in EC medium which contains 5 mmol/L D-Glucose (D-Glu), and treated with DL-homocysteine (DL-Hcy, 500 μmol/L) and/or (D-Glu, 25 mmol) without or with MDL28170 (MDL) for 48 hrs, CTsiRNA or μ-calpsiRNA for 72 hrs. L-NAME (100 μmol/L) was added in the last hour. NO was measured by staining intact HAECs with NO marker (DAF-FM, 10 μmol/L, Sigma #D2321, 30 mins.). Endothelial nitric oxide synthase (eNOS) activity was assessed by measuring of ^3H-L-arginine conversion to ^3H-citrulline in intact HAECs. n=3, *p<0.05 vs control; †p<0.05 vs DL-Hcy-treated HAECs; ‡p<0.05 vs D-Glu-treated HAECs; #p<0.05 vs DL-Hcy/D-Glu-treated HAECs. DAF-FM, 4-Amino-5-methylamino-2′,7′-difluorescein; CTsiRNA, control siRNA; HG, hyperglycemia; HHcy, hyperhomocysteinemia; μ-calpsiRNA, μ-calpain siRNA.
(§2) HAECs treated with or without DL-Hcy and/or D-Glu for 48 hrs were stained with 4-Amino-5-Methylamino-2′,7′-Difluorofluorescein (DAF-FM). To explore the role of calpain, especially μ-calpain, the DL-Hcy/D-Glu-treated HAECs were also treated with MDL28170 (MDL, 20 μmol/L) and μ-calpain siRNA, respectively. HAECs treated with L-NAME (100 μmol/L) for 1 hr before DAF-FM staining were used as negative controls. eNOS activity in HAECs was determined by measuring the conversion of ^3H-Arg to ^3H-citrulline in intact cells as previous described (Jiang et al., 2005, Arterioscl Throm Vas 25:2515-2521).

NO production in HAECs = NO production in HAECs by DAF-FM staining; format: cell-based, human; conditions: HAECs; L-NAME 100 μmol/L added in the last hour (negative control)
Method: as §1, §2

calpain [2] = test: t-BOC calpain activity assay in intact HAECs; format: cell-based, human; conditions: HAECs treated with DL-Hcy 500 μmol/L and D-Glu 25 mmol/L; PEG-SOD 150 U/mL, 48 hrs
Method: (FIG. 5A). In situ .O2^− production in aorta. (FIG. 5B). Nitrotyrosine (3-NT) levels. Aortic paraffin-cross sections (7 μm) from Cbs^−/+ mice were stained with 3-NT antibody and 3,3′-diaminobenzidine (DAB, brown). (FIG. 5C). Urinary 8-isoprostane levels. At the age of 8-week, Cbs^+/+ and Cbs^−/+ mice were fed with a high methionine diet (HM, methionine: 2% w/w) for 8 weeks, and/or injected with streptozotocin (STZ, i.p., 40 mg/kg) for 5 consecutive days starting from the first day of experiment. Mice fed with a control diet (CT, methionine: 0.37% w/w) and injected with vehicle (50 mM citrate buffer) served as controls. Aortic cryo-cross sections (30 μm) from Cbs^−/+ mice were stained with the superoxide marker dihydroethidium (DHE, 3 μmol/L, 30 mins.). Urine was collected from 24 hrs metabolic cage. (FIG. 5D). Endothelium-dependent vascular relaxation in HHcy/HG CBS^−/+ mouse aorta in the presence of antioxidants. Arterial rings were pre-contracted with phenylephrine (1 μmol/L) and examined for relaxation to cumulative additions of ACh in the aorta of STZ-treated Cbs^−/+ mice on HM diet. The arterial rings were preincubated with antioxidants polyethylene glycol superoxide dismutase (PEG-SOD, 150 U/mL, Sigma #S9549), Tempol (1 mmol/L, Sigma #176141), or apocynin (10 μmol/L, Sigma #W508454) for 1 hr. n=3-5. *p<0.05 vs vehicle-treated Cbs^−/+ mice on CT diet; †p<0.05 vs vehicle-treated Cbs^−/+ mice on HM diet; ‡p<0.05 vs STZ-treated Cbs^−/+ mice on CT diet; #p<0.05 vs STZ-treated Cbs^−/+ mice on HM diet. (FIG. 5E). […] Calpain activity was measured by the fluorescent substrate t-BOC-Leu-Met-CMAC (T-BOC, 10 μmol/L, 30 min) Human aortic endothelial cells (HAECs, passage 8-9) were cultured in EC medium which contains 5 mmol/L D-glucose (D-Glu), treated with DL-homocysteine (DL-Hcy, 500 μmol/L) and/or D-Glu (25 mmol/L) with or without […] (150 U/mL) or MDL28170 (MDL, 20 μmol/L) for 48 hrs, or CTsiRNA and μ-calpsiRNA for 72 hrs. […] Transfection effect of μ-calpsiRNA in HAECs was detected by Western blot after transfected with the siRNA for indicated time. […]

## CSCC[C@@H](C=O)NC(=O)[C@H](CC(C)C)NC(=O)[C@H](CC(C)C)NC(C)=O [ALLM, N-Acetyl-Leu-Leu-Met-CHO] (Ac-Leu-Leu-Met-aldehyde)
Mouse thoracic aorta
  aortic endothelium-dependent vascular relaxation to ACh: markedly improved

## CN(C)CCCn1cc(C2=C(c3c[nH]c4ccccc34)C(=O)NC2=O)c2ccccc21 [BIM-1]
Calpain [1]
  calpain activity: decreased

## Nc1nc2ncc(CNc3ccc(C(=O)N[C@@H](CCC(=O)O)C(=O)O)cc3)nc2c(=O)[nH]1 [Folic acid]
Aorta of db/db mice
  endothelium-dependent vascular relaxation responses to ACh: improved

## CN(C)CCCn1cc(C2=C(c3c[nH]c4ccccc34)C(=O)NC2=O)c2ccccc21 [GFX, GF109203X]
eNOS-pThr495
  HHcy/HG-induced eNOS-pThr495: completely rescued

## COC(=O)[C@@H](N)CCCNC(=N)N[N+](=O)[O-] [L-NAME, N^G-nitro-L-arginine methyl ester]
Mouse thoracic aorta; aorta of all groups (Cbs+/+ and Cbs−/+, HHcy and/or HG), L-NAME 100 μmol/L, 30 min
  vascular relaxation response to ACh: completely abolished
eNOS
  eNOS activity: 10%
NO production in HAECs
  NO generation: 5.7%

## CC1(C)CC(O)CC(C)(C)N1[O] [Tempol]
Mouse thoracic aorta
  endothelium-dependent vascular relaxation to ACh: significantly improved

## COc1cc(C(C)=O)ccc1O [apocynin]
Mouse thoracic aorta
  endothelium-dependent vascular relaxation to ACh: significantly improved

## CCCC[C@@H](C=O)NC(=O)[C@H](CC(C)C)NC(=O)OCc1ccccc1 [calpeptin]
Mouse thoracic aorta
  aortic endothelium-dependent vascular relaxation to ACh: markedly improved

## polyethylene glycol superoxide dismutase [PEG-SOD]
Calpain [2]
  decrease of HHcy/HG-induced calpain activation: 49%
Mouse thoracic aorta
  endothelium-dependent vascular relaxation to ACh: significantly improved
